The term IC50 denotes the point on the concentration scale where inhibition reaches its midpoint. A low value points to greater potency in that assay.

His-tagged Human KRAS^G12D, sequence (P01116-2 other isoform, or with tags, fused parts or gaps G12D): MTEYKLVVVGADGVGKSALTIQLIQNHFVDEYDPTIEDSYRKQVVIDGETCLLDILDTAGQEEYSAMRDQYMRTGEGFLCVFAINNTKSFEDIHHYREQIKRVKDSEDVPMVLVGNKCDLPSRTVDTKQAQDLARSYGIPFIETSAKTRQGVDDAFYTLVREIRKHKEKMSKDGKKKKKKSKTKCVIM

The target in this assay is His-tagged Human KRAS^G12D (Homo sapiens (Human), UniProt P01116, G12D). The assay is described as follows: HTRF KRAS G12D GTP binding assay. Conditions: displacement of GTP-Red tracer. The method, then:
KRAS^G12D was used in this assay.
The ability of a test compound to bind to KRAS^G12D was measured by using an HTRF KRAS^G12D GTP Binding Kit (Cisbio, 63ADK000CB27PEG). […] 5 μL of compound solution was added to each well after serial dilution, followed by addition of 5 μL of GDP (50 nM) solution. After 30 minutes incubation at room temperature, 1×6His Eu cryptate antibody solution and GTP-Red tracer were added to the plate, then incubated for another 30 minutes. The HTRF signal was measured with a VICTOR Nivo multimode plate reader according to the manufacturer's instructions. The percent inhibition was calculated using the following formula: […]
(where the “Maximum Signal” are wells containing DMSO without inhibitor; the “Minimum Signal” are wells containing reference inhibitory component (GDP); the “Test compound signal” are wells containing test compound (inhibitor) at established concentrations).
IC50 was determined by fitting percent inhibition at each inhibitor concentration to the four-parameter nonlinear logistic equation using GraphPad Prism.
Consider `CCc1c(F)ccc2cc(O)cc(-c3ncc4c(N5CCC[C@H]5CN)nc(OC[C@@]56CCCN5C[C@H](F)C6)nc4c3F)c12` [Compound 23], for which the concentration for half-maximal inhibition (IC50) came to 1350 nM.

Consider `CCc1c(F)ccc2cc(O)cc(-c3ncc4c(N5CCC[C@]6(CCO6)C5)nc(OCC5(CN6CCC7(CCC7)CC6)CC5)nc4c3F)c12` [Compound 23a], for which the concentration for half-maximal inhibition (IC50) was 31.2 nM.

In turn, `CCc1c(F)ccc2cc(O)cc(-c3ncc4c(N5CCCC5c5cccnc5)nc(OC[C@@]56CCCN5C[C@H](F)C6)nc4c3F)c12` (stereo partly drawn) [Compound 24] returned an IC50 of more than 10000 nM.

`CN(C)CC1(COc2nc(N3CCC[C@]4(CCO4)C3)c3cnc(-c4cc(O)ccc4-c4cccs4)c(F)c3n2)CC1` [Compound 25a] showed an IC50 of 639 nM.

Compound `CCc1c(F)ccc2cc(O)cc(-c3ncc4c(N5CCCC(Cl)(CCO)C5)nc(OC[C@@]56CCCN5C[C@H](F)C6)nc4c3F)c12` (stereo partly drawn) [Compound 26] had an IC50 of 1530 nM.

As to `CCc1c(F)ccc2cc(O)cc(-c3ncc4c(N5C[C@@H]6C[C@@H](O)[C@H]5C6)nc(OC[C@@]56CCCN5C[C@H](F)C6)nc4c3F)c12` [Compound 27], the IC50 is more than 10000 nM.

Turning to `CCc1c(F)ccc2cc(O)cc(-c3ncc4c(NC5CC6(CCC6)C5)nc(OC[C@@]56CCCN5C[C@H](F)C6)nc4c3F)c12` [Compound 28], the half-maximal inhibitory concentration (IC50) was more than 10000 nM.

Take `CCc1c(F)ccc2cc(O)cc(-c3ncc4c(N5CCC[C@]6(CCO6)C5)nc(OCC5(CN6CC(F)(F)C6)CC5)nc4c3F)c12` [Compound 28a]: the IC50 came to 159 nM.

For `CCc1c(F)ccc2cc(O)cc(-c3ncc4c(N5CC[C@@H](C(C)(C)O)C5)nc(OC[C@@]56CCCN5C[C@H](F)C6)nc4c3F)c12` [Compound 29], the half-maximal inhibitory concentration (IC50) was more than 10000 nM.

Take `CCc1c(F)ccc2cc(O)cc(-c3ncc4c(N5CCC[C@H]5CN5CCCC5)nc(OC[C@@]56CCCN5C[C@H](F)C6)nc4c3F)c12` [Compound 30]: the 50% inhibitory concentration (IC50) is more than 10000 nM.

In turn, `CCc1c(F)ccc2cc(O)cc(-c3ncc4c(N5CCC[C@]6(CCO6)C5)nc(OCC5(CN6CCC(F)(F)CC6)CC5)nc4c3F)c12` [Compound 30a] gave a 50% inhibitory concentration (IC50) of 41.6 nM.

Regarding `CCc1c(F)ccc2cc(O)cc(-c3ncc4c(N5CCN(C(C)=O)[C@H](C)C5)nc(OC[C@@]56CCCN5C[C@H](F)C6)nc4c3F)c12` [Compound 31], the half-inhibitory concentration (IC50) was more than 10000 nM.

In the case of `CCc1c(F)ccc2cc(O)cc(-c3ncc4c(N5CCC[C@]6(CCO6)C5)nc(OCC5(CC(N)=O)CC5)nc4c3F)c12` [Compound 31a], the IC50 amounted to 518 nM.

`CCc1c(F)ccc2cc(O)cc(-c3ncc4c(N5CC[C@@H](CO)C5)nc(OC[C@@]56CCCN5C[C@H](F)C6)nc4c3F)c12` [Compound 32] returned an IC50 of more than 1000 nM.

Regarding `CCc1c(F)ccc2cc(O)cc(-c3ncc4c(N(C)CC(C)(C)O)nc(OCC5(CN(C)C)CC5)nc4c3F)c12` [Compound 32a], the concentration for half-maximal inhibition (IC50) was determined as 481 nM.

Consider `CCc1c(F)ccc2cc(O)cc(-c3ncc4c(N5C[C@@H](N)C[C@H]5CO)nc(OC[C@@]56CCCN5C[C@H](F)C6)nc4c3F)c12` [Compound 33], for which the IC50 is more than 1000 nM.

Regarding `CCc1c(F)ccc2cc(O)cc(-c3ncc4c(N5CCN[C@H](C)C5)nc(OC[C@@]56CCCN5C[C@H](F)C6)nc4c3F)c12` [Compound 34], the IC50 is more than 1000 nM.

In the case of `CCc1c(F)ccc2cc(O)cc(-c3ncc4c(N5C[C@@H]6C[C@H]5CO6)nc(OC[C@@]56CCCN5C[C@H](F)C6)nc4c3F)c12` [Compound 35], the IC50 was more than 1000 nM.

Consider `CN(C)CC1(COc2nc(N3CCC[C@]4(CCO4)C3)c3cnc(-c4ccc(F)c5sc(N)c(C#N)c45)c(F)c3n2)CC1` [Compound 35a], for which the IC50 was more than 1000 nM.

Compound `CCc1c(F)ccc2cc(O)cc(-c3ncc4c(N5CC6(CC(O)C6)C5)nc(OC[C@@]56CCCN5C[C@H](F)C6)nc4c3F)c12` [Compound 36] gave an IC50 of more than 1000 nM.

Consider `C#Cc1c(F)ccc2cc(O)cc(-c3ncc4c(N5CC=CCC5)nc(OCC5(CN(C)C)CC5)nc4c3F)c12` [Compound 36a], for which the half-inhibitory concentration (IC50) was more than 1000 nM.

`CCc1c(F)ccc2cc(O)cc(-c3ncc4c(N5C[C@H]6C[C@@H]5[C@@H](O)C6)nc(OC[C@@]56CCCN5C[C@H](F)C6)nc4c3F)c12` [Compound 37] came in with an IC50 of more than 1000 nM.

Compound `CCc1c(F)ccc2cc(O)cc(-c3ncc4c(N5CCC[C@]6(CCO6)C5)nc(OCC5(N(C)C)CC5)nc4c3F)c12` [Compound 37a] showed a half-inhibitory concentration (IC50) of 121 nM.

Take `CCc1c(F)ccc2cc(O)cc(-c3ncc4c(N5CCCC[C@@H](N)C5)nc(OC[C@@]56CCCN5C[C@H](F)C6)nc4c3F)c12` [Compound 38]: the IC50 worked out at 163 nM.

In turn, `CCc1c(F)ccc2cc(O)cc(-c3ncc4c(N5CC6CC(C6)C5)nc(OCC5(CN(C)C)CC5)nc4c3F)c12` [Compound 38a] displayed an IC50 of more than 1000 nM.

With `CN(C)CC1(COc2nc(N3CCC[C@]4(CCO4)C3)c3cc(Cl)c(-c4ccc(F)c5sc(N)c(C#N)c45)c(F)c3n2)CC1` [Compound 39a], the IC50 is more than 1000 nM.

`CCc1c(F)ccc2cc(O)cc(-c3ncc4c(N5CCC6(CCCCC6)C5)nc(OC[C@@]56CCCN5C[C@H](F)C6)nc4c3F)c12` [Compound 40] showed a 50% inhibitory concentration (IC50) of more than 1000 nM.

`CCc1c(F)ccc2cc(O)cc(-c3ncc4c(N5CCCC(OC)CC5)nc(OCC5(CN(C)C)CC5)nc4c3F)c12` (stereo not drawn) [Compound 40a] showed a half-inhibitory concentration (IC50) of 424 nM.

Regarding `CCc1c(F)ccc2cc(O)cc(-c3ncc4c(N5CCC[C@]6(CCO6)C5)nc(OCC5(CN6CCC(F)C6)CC5)nc4c3F)c12` (stereo partly drawn) [Compound 41a], the IC50 is 14.2 nM.

Regarding `CCc1c(F)ccc2cc(O)cc(-c3ncc4c(N5CCCC(C#N)CC5)nc(OCC5(CN(C)C)CC5)nc4c3F)c12` (stereo not drawn) [Compound 42a], the IC50 is more than 1000 nM.

`CCc1c(F)ccc2cc(O)cc(-c3ncc4c(N5CCC6(CNC(=O)O6)C5)nc(OC[C@@]56CCCN5C[C@H](F)C6)nc4c3F)c12` (stereo partly drawn) [Compound 43] returned an IC50 of more than 1000 nM.

Regarding `CCc1c(F)ccc2cc(O)cc(-c3ncc4c(N5CCCCCC5)nc(OCC5(CN(C)C)CC5)nc4c3F)c12` [Compound 43a], the IC50 stood at 557 nM.

Regarding `CCc1c(F)ccc2cc(O)cc(-c3ncc4c(N5CC6(CC(=O)C6)C5)nc(OC[C@@]56CCCN5C[C@H](F)C6)nc4c3F)c12` [Compound 44], the half-inhibitory concentration (IC50) is more than 1000 nM.

As for `CCc1c(F)ccc2cc(O)cc(-c3ncc4c(N5CCCC(O)CC5)nc(OCC5(CN(C)C)CC5)nc4c3F)c12` (stereo not drawn) [Compound 44a], the IC50 came out at 234 nM.

Regarding `CCc1c(F)ccc2cc(O)cc(-c3ncc4c(N5CCC[C@H]5C(C)(C)O)nc(OC[C@@]56CCCN5C[C@H](F)C6)nc4c3F)c12` [Compound 45], the IC50 is more than 1000 nM.

`CCc1c(F)ccc2cc(O)cc(-c3ncc4c(N5CCCCC(OC)C5)nc(OCC5(CN(C)C)CC5)nc4c3F)c12` (stereo not drawn) [Compound 45a] yielded a 50% inhibitory concentration (IC50) of more than 1000 nM.

With `CCc1c(F)ccc2cc(O)cc(-c3ncc4c(N5C[C@H]6C[C@@H]5C(=O)N6)nc(OC[C@@]56CCCN5C[C@H](F)C6)nc4c3F)c12` [Compound 46], the half-maximal inhibitory concentration (IC50) is more than 1000 nM.

`CCc1c(F)ccc2cc(O)cc(-c3ncc4c(N5CCCCC(O)C5)nc(OCC5(CN(C)C)CC5)nc4c3F)c12` (stereo not drawn) [Compound 46a] yielded an IC50 of 684 nM.

Compound `CCc1c(F)ccc2cc(O)cc(-c3ncc4c(OC[C@@]56CCCN5C[C@H](F)C6)nc(OC[C@@]56CCCN5C[C@H](F)C6)nc4c3F)c12` [Compound 47] showed an IC50 of more than 1000 nM.

`CCc1c(F)ccc2cc(O)cc(-c3ncc4c(N5CC[C@H](CO)C5)nc(OC[C@@]56CCCN5C[C@H](F)C6)nc4c3F)c12` [Compound 48] registered a concentration for half-maximal inhibition (IC50) of more than 1000 nM.

In the case of `N#Cc1c(N)sc2c(F)ccc(-c3c(Cl)cc4c(N5CCC[C@]6(CCO6)C5)nc(OCC5(CN6CCCCC6)CC5)nc4c3F)c12` [Compound 48a], the half-inhibitory concentration (IC50) is more than 1000 nM.

Take `CCc1c(F)ccc2cc(O)cc(-c3ncc4c(N5CCC(C(C)=O)CC5)nc(OC[C@@]56CCCN5C[C@H](F)C6)nc4c3F)c12` [Compound 49]: the IC50 is more than 1000 nM.

Compound `CCc1c(F)ccc2cc(O)cc(-c3ncc4c(N5CCC[C@]6(CCO6)C5)nc(OCC5(CN(C)CC6COC6)CC5)nc4c3F)c12` [Compound 49a] returned a 50% inhibitory concentration (IC50) of 4.05 nM.

For the compound `CCc1c(F)ccc2cc(O)cc(-c3ncc4c(N5CCCC6(COC6)C5)nc(OC[C@@]56CCCN5C[C@H](F)C6)nc4c3F)c12` [Compound 50], the half-inhibitory concentration (IC50) is 71 nM.

For the compound `CCc1c(F)ccc2cc(O)cc(-c3ncc4c(N5CCC[C@]6(CCO6)C5)nc(OCC5(CN(C)CC6CCOC6)CC5)nc4c3F)c12` (stereo partly drawn) [Compound 50a], the IC50 is 6.76 nM.

With `CCc1c(F)ccc2cc(O)cc(-c3ncc4c(N5CCC6CC6(O)C5)nc(OC[C@@]56CCCN5C[C@H](F)C6)nc4c3F)c12` (stereo partly drawn) [Compound 52], the IC50 was more than 1000 nM.

As to `CCc1c(F)ccc2cc(O)cc(-c3ncc4c(N5CCC6(CC5)COC6)nc(OC[C@@]56CCCN5C[C@H](F)C6)nc4c3F)c12` [Compound 53], the IC50 is more than 1000 nM.

The compound `CCc1c(F)ccc2cc(O)cc(-c3ncc4c(N5CC6(COC6)C5)nc(OC[C@@]56CCCN5C[C@H](F)C6)nc4c3F)c12` [Compound 54] registered an IC50 of more than 1000 nM.

As for `CCc1c(F)ccc2cc(O)cc(-c3ncc4c(N5C[C@H](N)C[C@H]5CO)nc(OC[C@@]56CCCN5C[C@H](F)C6)nc4c3F)c12` [Compound 55], the IC50 is more than 1000 nM.

`CCc1c(F)ccc2cc(O)cc(-c3ncc4c(N5CCC(C)(CO)C5)nc(OC[C@@]56CCCN5C[C@H](F)C6)nc4c3F)c12` (stereo partly drawn) [Compound 56] gave an IC50 of more than 1000 nM.

Compound `CCc1c(F)ccc2cc(O)cc(-c3ncc4c(N5[C@H](CO)C[C@H]6C[C@H]65)nc(OC[C@@]56CCCN5C[C@H](F)C6)nc4c3F)c12` [Compound 57] came in with an IC50 of 510 nM.

Values taken from US20240239813A1, “KRAS INHIBITORS AND PHARMACEUTICAL USES THEREOF” (RISEN (SUZHOU) PHARMA TECH CO., LTD., priority 2022, published 2024).
